Results taken from ChEMBL document CHEMBL4507277.

What was measured:
[1] = target: Tyrosine-protein kinase Blk (Homo sapiens) (UniProt P51451); details: Compound concentration 1000.0 nM
[2] = test system: Tyrosine-protein kinase ABL1 (Homo sapiens), P00519 [F317I]; details: Compound concentration 1000.0 nM
[3] = target: Muscarinic acetylcholine receptor M3 (Homo sapiens) (UniProt P20309); details: Compound concentration 10.0 uM
[4] = target: Rho-associated protein kinase 1 (Homo sapiens) (UniProt Q13464); details: Compound concentration 1000.0 nM
Chain of Rho-associated protein kinase 1 (Homo sapiens) (Q13464 2-1354 limits assumed): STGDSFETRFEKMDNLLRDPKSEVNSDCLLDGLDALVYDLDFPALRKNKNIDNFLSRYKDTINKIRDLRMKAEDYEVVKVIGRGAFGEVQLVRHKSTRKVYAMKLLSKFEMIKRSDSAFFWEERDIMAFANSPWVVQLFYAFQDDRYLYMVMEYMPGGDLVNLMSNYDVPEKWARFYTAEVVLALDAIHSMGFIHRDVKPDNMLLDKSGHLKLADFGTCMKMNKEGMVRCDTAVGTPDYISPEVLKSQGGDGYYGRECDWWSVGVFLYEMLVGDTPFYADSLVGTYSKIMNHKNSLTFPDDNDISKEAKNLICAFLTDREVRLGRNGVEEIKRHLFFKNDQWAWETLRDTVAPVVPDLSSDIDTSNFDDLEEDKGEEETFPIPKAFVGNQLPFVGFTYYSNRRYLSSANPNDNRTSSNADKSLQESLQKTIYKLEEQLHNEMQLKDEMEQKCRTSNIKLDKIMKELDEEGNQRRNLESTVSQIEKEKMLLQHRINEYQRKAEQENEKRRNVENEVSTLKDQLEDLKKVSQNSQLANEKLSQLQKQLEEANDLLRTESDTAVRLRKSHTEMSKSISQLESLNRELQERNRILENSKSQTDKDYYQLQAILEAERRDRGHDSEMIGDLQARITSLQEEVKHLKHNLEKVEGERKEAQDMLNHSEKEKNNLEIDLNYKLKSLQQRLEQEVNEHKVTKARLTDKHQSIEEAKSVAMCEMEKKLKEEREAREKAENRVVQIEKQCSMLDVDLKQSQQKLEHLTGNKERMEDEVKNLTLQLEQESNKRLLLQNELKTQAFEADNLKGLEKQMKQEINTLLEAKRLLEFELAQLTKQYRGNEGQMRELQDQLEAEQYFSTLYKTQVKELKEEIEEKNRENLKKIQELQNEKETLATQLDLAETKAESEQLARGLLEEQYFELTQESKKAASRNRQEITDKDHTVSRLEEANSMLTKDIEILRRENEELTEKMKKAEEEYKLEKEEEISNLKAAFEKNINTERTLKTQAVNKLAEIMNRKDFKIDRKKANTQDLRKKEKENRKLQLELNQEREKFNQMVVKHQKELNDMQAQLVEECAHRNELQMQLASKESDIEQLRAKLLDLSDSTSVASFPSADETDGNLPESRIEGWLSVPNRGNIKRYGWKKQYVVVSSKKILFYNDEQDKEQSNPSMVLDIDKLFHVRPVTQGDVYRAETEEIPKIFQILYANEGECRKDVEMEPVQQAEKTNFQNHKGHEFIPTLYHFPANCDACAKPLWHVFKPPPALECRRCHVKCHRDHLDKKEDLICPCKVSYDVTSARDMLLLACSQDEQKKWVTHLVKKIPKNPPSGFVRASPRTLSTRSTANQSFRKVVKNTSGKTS

[5] = test system: Proto-oncogene tyrosine-protein kinase receptor Ret (Homo sapiens), P07949 [V804L]; details: Compound concentration 1000.0 nM
[6] = target: Tyrosine-protein kinase Lyn (Homo sapiens) (UniProt P07948); details: Compound concentration 1000.0 nM
Chain of Tyrosine-protein kinase Lyn (Homo sapiens) (P07948 2-512 limits assumed): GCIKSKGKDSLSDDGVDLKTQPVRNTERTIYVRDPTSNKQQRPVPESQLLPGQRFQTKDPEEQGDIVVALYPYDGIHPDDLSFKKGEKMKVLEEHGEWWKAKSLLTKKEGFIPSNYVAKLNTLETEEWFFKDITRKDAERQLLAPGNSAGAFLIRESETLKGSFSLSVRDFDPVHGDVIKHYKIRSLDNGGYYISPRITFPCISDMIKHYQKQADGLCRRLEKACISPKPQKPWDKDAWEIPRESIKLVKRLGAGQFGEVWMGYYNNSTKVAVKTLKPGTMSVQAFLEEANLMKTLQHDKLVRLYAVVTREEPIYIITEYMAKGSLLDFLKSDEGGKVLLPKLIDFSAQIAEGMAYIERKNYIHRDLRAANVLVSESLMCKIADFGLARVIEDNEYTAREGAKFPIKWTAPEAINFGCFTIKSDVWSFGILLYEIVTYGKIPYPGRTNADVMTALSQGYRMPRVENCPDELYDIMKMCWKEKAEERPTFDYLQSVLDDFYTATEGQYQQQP

[7] = target: Ribosomal protein S6 kinase alpha-4 (Homo sapiens) (UniProt O75676); details: Compound concentration 1000.0 nM
[8] = target: Serine/threonine-protein kinase PAK 6 (Homo sapiens) (UniProt Q9NQU5); details: Compound concentration 1000.0 nM
[9] = target: Cyclin-dependent kinase 3 (Homo sapiens) (UniProt Q00526); details: Compound concentration 1000.0 nM
[10] = target: Serine/threonine-protein kinase STK11 (Homo sapiens) (UniProt Q15831); details: Compound concentration 1000.0 nM
Chain of Serine/threonine-protein kinase STK11 (Homo sapiens) (Q15831 whole entry): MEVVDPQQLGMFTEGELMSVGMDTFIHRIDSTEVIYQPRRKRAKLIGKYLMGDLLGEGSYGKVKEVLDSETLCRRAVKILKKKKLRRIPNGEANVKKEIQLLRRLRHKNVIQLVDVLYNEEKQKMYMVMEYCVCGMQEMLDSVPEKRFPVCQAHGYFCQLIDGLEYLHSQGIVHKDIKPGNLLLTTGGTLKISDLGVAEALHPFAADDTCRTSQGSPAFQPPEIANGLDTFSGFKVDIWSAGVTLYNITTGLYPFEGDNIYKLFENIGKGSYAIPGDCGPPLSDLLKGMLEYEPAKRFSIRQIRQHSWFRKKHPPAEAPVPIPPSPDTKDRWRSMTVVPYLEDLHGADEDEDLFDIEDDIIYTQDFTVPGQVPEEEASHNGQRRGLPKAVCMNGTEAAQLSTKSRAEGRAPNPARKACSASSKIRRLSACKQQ

[11] = target: 5-hydroxytryptamine receptor 7 (Homo sapiens) (UniProt P34969); details: Compound concentration 10.0 uM
[12] = target: 5-hydroxytryptamine receptor 6 (Homo sapiens) (UniProt P50406); details: Compound concentration 10.0 uM
[13] = target: Serine/threonine-protein kinase OSR1 (Homo sapiens) (UniProt O95747); details: Compound concentration 1000.0 nM
Chain of Serine/threonine-protein kinase OSR1 (Homo sapiens) (O95747 2-527 limits assumed): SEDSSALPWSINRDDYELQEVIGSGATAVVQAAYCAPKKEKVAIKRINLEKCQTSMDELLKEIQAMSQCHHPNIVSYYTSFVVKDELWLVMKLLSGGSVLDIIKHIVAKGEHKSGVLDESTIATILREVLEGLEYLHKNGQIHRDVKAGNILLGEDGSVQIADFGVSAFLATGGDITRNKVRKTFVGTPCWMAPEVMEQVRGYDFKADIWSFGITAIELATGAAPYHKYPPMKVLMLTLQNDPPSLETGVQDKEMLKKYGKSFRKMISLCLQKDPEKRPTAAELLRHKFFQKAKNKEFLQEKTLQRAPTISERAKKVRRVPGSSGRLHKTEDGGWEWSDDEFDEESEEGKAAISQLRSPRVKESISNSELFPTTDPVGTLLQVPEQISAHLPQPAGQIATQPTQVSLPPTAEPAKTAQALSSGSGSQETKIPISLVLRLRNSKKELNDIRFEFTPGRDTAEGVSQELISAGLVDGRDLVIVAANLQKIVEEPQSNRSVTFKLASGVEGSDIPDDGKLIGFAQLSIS

[14] = target: Phosphatidylinositol 4-kinase beta (Homo sapiens) (UniProt Q9UBF8); details: Compound concentration 1000.0 nM
[15] = target: Cyclin-dependent kinase 15 (Homo sapiens) (UniProt Q96Q40); details: Compound concentration 1000.0 nM
Chain of Cyclin-dependent kinase 15 (Homo sapiens) (Q96Q40 whole entry): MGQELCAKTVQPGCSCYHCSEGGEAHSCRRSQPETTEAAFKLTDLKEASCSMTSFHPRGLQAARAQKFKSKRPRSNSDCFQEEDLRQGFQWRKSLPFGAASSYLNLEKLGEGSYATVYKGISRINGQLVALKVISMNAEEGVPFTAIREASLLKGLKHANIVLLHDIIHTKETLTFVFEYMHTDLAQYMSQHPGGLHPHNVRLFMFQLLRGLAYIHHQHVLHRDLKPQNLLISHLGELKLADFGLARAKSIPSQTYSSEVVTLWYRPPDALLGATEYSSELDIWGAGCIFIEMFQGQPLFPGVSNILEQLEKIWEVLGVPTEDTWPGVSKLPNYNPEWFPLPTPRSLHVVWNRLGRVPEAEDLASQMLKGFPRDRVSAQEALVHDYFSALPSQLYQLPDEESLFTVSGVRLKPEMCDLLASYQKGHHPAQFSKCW

[16] = target: D(1A) dopamine receptor (Homo sapiens) (UniProt P21728); details: Compound concentration 10.0 uM
[17] = target: Inhibitor of nuclear factor kappa-B kinase subunit epsilon (Homo sapiens) (UniProt Q14164); details: Compound concentration 1000.0 nM
[18] = target: Tyrosine-protein kinase Fyn (Homo sapiens) (UniProt P06241); details: Compound concentration 1000.0 nM
Chain of Tyrosine-protein kinase Fyn (Homo sapiens) (P06241 2-537 limits assumed): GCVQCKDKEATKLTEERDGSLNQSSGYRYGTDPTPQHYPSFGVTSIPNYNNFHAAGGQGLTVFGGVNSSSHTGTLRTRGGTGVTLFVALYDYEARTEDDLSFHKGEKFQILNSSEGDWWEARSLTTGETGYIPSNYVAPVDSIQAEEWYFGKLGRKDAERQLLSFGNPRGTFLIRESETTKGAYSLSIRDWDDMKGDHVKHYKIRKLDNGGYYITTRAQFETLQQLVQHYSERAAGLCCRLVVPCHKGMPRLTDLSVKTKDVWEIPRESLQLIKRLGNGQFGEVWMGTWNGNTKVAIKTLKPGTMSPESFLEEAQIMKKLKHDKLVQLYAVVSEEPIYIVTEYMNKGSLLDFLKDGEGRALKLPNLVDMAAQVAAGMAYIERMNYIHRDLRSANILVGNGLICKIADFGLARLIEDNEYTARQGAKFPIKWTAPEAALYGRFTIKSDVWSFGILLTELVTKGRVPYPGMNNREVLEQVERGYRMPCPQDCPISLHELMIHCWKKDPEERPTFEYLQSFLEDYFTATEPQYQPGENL

[19] = target: Receptor tyrosine-protein kinase erbB-4 (Homo sapiens) (UniProt Q15303); details: Compound concentration 1000.0 nM
[20] = target: Serine/threonine-protein kinase Nek2 (Homo sapiens) (UniProt P51955); details: Compound concentration 1000.0 nM
[21] = target: Cyclin-G-associated kinase (Homo sapiens) (UniProt O14976); details: Compound concentration 1000.0 nM
[22] = target: Phosphatidylinositol 5-phosphate 4-kinase type-2 beta (Homo sapiens) (UniProt P78356); details: Compound concentration 1000.0 nM
[23] = target: Sigma intracellular receptor 2 (Homo sapiens) (UniProt Q5BJF2); details: Compound concentration 10.0 uM
[24] = target: Adenosine receptor A1 (Homo sapiens) (UniProt P30542); details: Compound concentration 10.0 uM
[25] = target: T1, D(4) dopamine receptor (Homo sapiens) (UniProt P21917); details: Compound concentration 10.0 uM
T1 sequence (whole entry): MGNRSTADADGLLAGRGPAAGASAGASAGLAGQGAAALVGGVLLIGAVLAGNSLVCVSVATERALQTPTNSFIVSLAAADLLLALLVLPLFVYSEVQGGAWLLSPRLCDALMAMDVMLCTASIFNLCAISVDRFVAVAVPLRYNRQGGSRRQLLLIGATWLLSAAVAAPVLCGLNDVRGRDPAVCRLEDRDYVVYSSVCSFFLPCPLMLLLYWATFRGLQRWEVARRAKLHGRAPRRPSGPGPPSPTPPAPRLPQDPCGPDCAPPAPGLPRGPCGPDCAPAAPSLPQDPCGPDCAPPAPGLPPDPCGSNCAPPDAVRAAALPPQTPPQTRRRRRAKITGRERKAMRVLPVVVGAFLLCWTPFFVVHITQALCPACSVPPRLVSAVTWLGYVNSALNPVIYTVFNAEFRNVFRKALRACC

[26] = target: Histamine H1 receptor (Homo sapiens) (UniProt P35367); details: Compound concentration 10.0 uM
[27] = target: Voltage-dependent N-type calcium channel subunit alpha-1B (Rattus norvegicus) (UniProt Q02294); details: Compound concentration 10.0 uM
[28] = target: D(2) dopamine receptor (Homo sapiens) (UniProt P14416); details: Compound concentration 10.0 uM
[29] = target: Histamine H2 receptor (Homo sapiens) (UniProt P25021); details: Compound concentration 10.0 uM
[30] = target: Calpain-1 catalytic subunit (Homo sapiens) (UniProt P07384); details: Compound concentration 10.0 uM
[31] = target: cGMP-inhibited 3',5'-cyclic phosphodiesterase 3A (Homo sapiens) (UniProt Q14432); details: Compound concentration 10.0 uM
[32] = target: Opioid receptor (Rattus norvegicus) (UniProt P33533+P34975+P33535); details: Compound concentration 10.0 uM
[33] = target: Leukotriene C4 synthase (Cavia porcellus) (UniProt A6XA80); details: Compound concentration 10.0 uM
[34] = target: Acetylcholine receptor subunit alpha (Homo sapiens) (UniProt P02708); details: Compound concentration 10.0 uM
[35] = target: 5-hydroxytryptamine receptor 4 (Cavia porcellus) (UniProt O70528); details: Compound concentration 10.0 uM
[36] = target: ATP-sensitive inward rectifier potassium channel 1 isoform X1 (Mesocricetus auratus) (UniProt A0A1U8CU73); details: Compound concentration 10.0 uM
[37] = target: Sodium-dependent noradrenaline transporter (Homo sapiens) (UniProt P23975); details: Compound concentration 10.0 uM
[38] = target: Beta-2 adrenergic receptor (Rattus norvegicus) (UniProt P10608); details: Compound concentration 10.0 uM
[39] = target: Polyunsaturated fatty acid lipoxygenase ALOX15 (Oryctolagus cuniculus) (UniProt P12530); details: Compound concentration 10.0 uM
[40] = target: Muscarinic acetylcholine receptor (Rattus norvegicus) (UniProt P08482+P08483+P08485+P08911+P10980); details: Compound concentration 10.0 uM

Chain of Tyrosine-protein kinase ABL1 (Homo sapiens), P00519 [F317I] (P00519 whole entry F317I): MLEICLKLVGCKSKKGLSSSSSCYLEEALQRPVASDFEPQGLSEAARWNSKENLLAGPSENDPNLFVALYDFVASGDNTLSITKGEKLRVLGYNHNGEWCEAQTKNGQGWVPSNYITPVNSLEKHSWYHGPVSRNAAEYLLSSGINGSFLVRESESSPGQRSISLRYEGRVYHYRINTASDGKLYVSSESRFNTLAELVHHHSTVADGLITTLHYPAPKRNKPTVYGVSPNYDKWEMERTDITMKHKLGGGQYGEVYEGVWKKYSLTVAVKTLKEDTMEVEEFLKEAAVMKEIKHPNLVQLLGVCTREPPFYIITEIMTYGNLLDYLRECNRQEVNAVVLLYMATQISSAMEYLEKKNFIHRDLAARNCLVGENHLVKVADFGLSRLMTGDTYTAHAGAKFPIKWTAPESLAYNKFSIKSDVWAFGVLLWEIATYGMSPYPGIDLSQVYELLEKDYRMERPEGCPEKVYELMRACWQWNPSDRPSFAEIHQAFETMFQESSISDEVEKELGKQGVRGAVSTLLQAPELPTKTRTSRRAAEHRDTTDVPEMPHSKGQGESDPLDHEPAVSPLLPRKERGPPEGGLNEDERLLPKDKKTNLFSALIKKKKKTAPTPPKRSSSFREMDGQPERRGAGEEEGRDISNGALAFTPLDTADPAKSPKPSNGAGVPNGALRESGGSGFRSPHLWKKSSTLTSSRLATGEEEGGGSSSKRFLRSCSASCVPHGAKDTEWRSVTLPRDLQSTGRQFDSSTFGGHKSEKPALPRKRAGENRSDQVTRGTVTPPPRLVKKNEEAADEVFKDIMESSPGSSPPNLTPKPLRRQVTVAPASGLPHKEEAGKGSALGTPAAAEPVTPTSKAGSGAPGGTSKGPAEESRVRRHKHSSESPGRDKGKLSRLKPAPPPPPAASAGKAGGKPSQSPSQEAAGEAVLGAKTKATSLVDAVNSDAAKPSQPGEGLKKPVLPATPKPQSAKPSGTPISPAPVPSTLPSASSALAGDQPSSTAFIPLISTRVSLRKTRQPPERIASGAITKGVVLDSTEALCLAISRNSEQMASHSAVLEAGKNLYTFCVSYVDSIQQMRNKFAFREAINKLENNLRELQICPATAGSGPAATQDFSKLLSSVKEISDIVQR

CCS(=O)(=O)c1cc2cc(C[C@@](O)(CC(C)(C)c3ccc(F)cc3C(N)=O)C(F)(F)F)[nH]c2cn1
inactive: residual activity [1] 100% | residual activity [2] 100% | inhibition [3] 1.25% | residual activity [4] 69% | residual activity [5] 96% | residual activity [6] 100% | residual activity [7] 78% | residual activity [8] 77% | residual activity [9] 73% | residual activity [10] 100% | inhibition [11] 4.44% | inhibition [12] -3.13% | residual activity [13] 88% | residual activity [14] 100% | residual activity [15] 59% | inhibition [16] 2.6% | residual activity [17] 83% | residual activity [18] 100% | residual activity [19] 100% | residual activity [20] 94% | residual activity [21] 71% | residual activity [22] 85%

CCS(=O)(=O)c1cc2cc(C[C@](O)(CC(C)(C)c3ccc(F)cc3C(N)=O)C(F)(F)F)[nH]c2cn1
inactive: residual activity [1] 100% | inhibition [23] 9.04% | residual activity [24] 107% | residual activity [2] 94% | residual activity [25] 104% | residual activity [4] 84% | residual activity [26] 100% | residual activity [5] 100% | residual activity [6] 100% | residual activity [27] 96% | residual activity [28] 90% | residual activity [29] 96% | residual activity [7] 98% | residual activity [30] 98% | residual activity [8] 100% | residual activity [9] 100% | residual activity [10] 100% | residual activity [31] 82% | inhibition [11] 4.98% | residual activity [32] 95% | inhibition [12] -3.78% | residual activity [13] 90% | residual activity [14] 100% | residual activity [15] 88% | residual activity [17] 100% | residual activity [33] 104% | residual activity [18] 77% | residual activity [34] 101% | residual activity [19] 100% | residual activity [20] 100% | residual activity [21] 100% | residual activity [35] 89% | residual activity [36] 104% | residual activity [22] 96% | residual activity [37] 102% | residual activity [38] 75% | residual activity [39] 89% | residual activity [40] 103%
